The text below walks through data of ChEMBL document CHEMBL1146082, “Development of a structural model for NF-kappaB inhibition of sesquiterpene lactones using self-organizing neural networks” (J Med Chem, 2006).

Each structure is given as a SMILES string.

Transcription factor p65 (Homo sapiens), sequence (Q04206 whole entry): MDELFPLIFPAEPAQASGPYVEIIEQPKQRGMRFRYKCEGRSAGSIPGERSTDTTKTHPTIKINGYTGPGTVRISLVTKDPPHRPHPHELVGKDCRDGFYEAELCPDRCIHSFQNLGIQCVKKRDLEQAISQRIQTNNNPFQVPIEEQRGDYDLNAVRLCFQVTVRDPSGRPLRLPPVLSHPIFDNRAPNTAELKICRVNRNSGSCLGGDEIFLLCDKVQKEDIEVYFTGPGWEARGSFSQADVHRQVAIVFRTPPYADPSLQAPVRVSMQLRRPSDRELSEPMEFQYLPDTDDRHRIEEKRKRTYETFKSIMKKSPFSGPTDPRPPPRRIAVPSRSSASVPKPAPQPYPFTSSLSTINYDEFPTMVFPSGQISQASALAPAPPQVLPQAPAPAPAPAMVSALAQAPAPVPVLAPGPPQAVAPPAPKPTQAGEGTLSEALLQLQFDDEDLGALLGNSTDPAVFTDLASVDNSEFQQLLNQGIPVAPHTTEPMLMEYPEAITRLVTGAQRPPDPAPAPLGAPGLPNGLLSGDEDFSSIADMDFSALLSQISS

This test has as its target Transcription factor p65 (Homo sapiens) (UniProt Q04206). In words: Inhibition of NF-kappaB DNA binding by EMSA. Background: Mobility shift assays separate free from complexed probe on a gel.
In turn, `C=C1C(=O)O[C@@H]2C[C@H](C)[C@@]3(O)CC[C@@](C)(C[C@@H](OC(=O)C(C)C)[C@@H]12)O3` displayed an IC100 of 200 µM. As for `C=C(C)C(=O)O[C@@H]1C[C@](C)(O)[C@@H]2C(=O)C=C(C)[C@@H]2[C@H]2OC(=O)C(=C)[C@@H]21`, the figure is 50 µM; as for `C=C1C(=O)O[C@H]2/C=C(\C)CC/C=C(\C)[C@@H](OC(=O)[C@@]3(C)O[C@H]3C)[C@H](O)[C@@H]12`, 50 µM. For the molecule `C=C(C)C(=O)O[C@H]1/C(C=O)=C\CC/C(COC(C)=O)=C/[C@H]2OC(=O)C(=C)[C@@H]2[C@@H]1O`, the IC100 amounted to 5 µM. As for `C=C(C)C(=O)O[C@@H]1C[C@]2(C)CC[C@@](OC)(O2)/C(C)=C\[C@H]2OC(=O)C(=C)[C@@H]21`, the figure is 200 µM; as for `C=C1C(=O)O[C@@H]2/C=C(/CO)[C@@]3(O)C[C@@H](O)[C@@](C)(C[C@@H](OC(=O)/C(C)=C\C)[C@@H]12)O3`, 20 µM. As for `C=C1C(=O)O[C@H]2C/C(CO)=C/CC/C(COC(=O)C(C)C(C)O)=C/C[C@H]12` (some centres undefined), the figure is 50 µM. In the case of `C=C1C(=O)O[C@@H]2[C@H]3C(C)=CC(=O)C3=C(C)CC[C@@H]12`, the IC100 stood at 50 µM. `C=C[C@]1(C)CC[C@H]2C(=C)C(=O)O[C@@H]2[C@H]1C(=C)C` returned an IC100 of 100 µM.
